Patent publication US20250064773A1, “TARGETING ERO1 ALPHA WITH AURONE DERIVATIVES” (West Virginia University Board of Governors on behalf of …, priority 2021, published 2025)

Experiments:
[1] = test system: PC-9 ERO1α knockout clones; assay: Soft agar clonogenic assay, PC-9 ERO1α knockout clones; assay type: cell-based; details: 14 days, 3.75-15 μM
Description: We utilized an MTT assay to determine the potency of the compounds for inhibiting cell growth. […] We next asked whether T151742 induced inhibition of cell growth was dependent on ERO1α expression. As shown in FIG. 6C two ERO1α deleted clones in the PC-9 cell line were isolated. Using an MTT assay to determine overall cellar viability, a non-targeted control (scramble), and both ERO1α knockout clones was subjected to treatment with T151742 for 72 hours (See FIG. 6D). […] Though only slight differences were observed between T151742 and EN-460 we tested the effects of these compounds in a clonogenic assay which is a better test for inhibition of self-renewal.
FIG. 7A and FIG. 7B show 1000 cells/well were plated in a 12-well plate in triplicate with either 0.5% DMSO, T151742, or EN-460 and allowed to form colonies for 14 days. Colonies were subsequently stained with 0.01% Crystal Violet, imaged, and quantified using ImageJ. […] Colonies were stained with 0.01% Crystal Violet, imaged, and quantified using ImageJ.
Cell Lines: PC-9 cell line used was obtained from Sigma Aldrich and grown in RPMI 1640 medium with 10% fetal bovine serum and 1% penicillin/streptomycin. […] Plate was then read on the BioTek Cytation 5 at 530/590 nm. […] Plate was then read at 570 nm. […] Images were then quantified using ImageJ. […]

purified human ERO1α = target: T1, purified human ERO1α (Homo sapiens, UniProt Q96HE7, C104A/C131A/C166A); assay: Lineweaver-Burk enzyme kinetics with varying PDI (Amplex Red); assay type: biochemical; details: varying PDI and T151742 concentrations
T1 construct: made in house
T1 sequence (Q96HE7 22-468 C104A/C131A/C166A): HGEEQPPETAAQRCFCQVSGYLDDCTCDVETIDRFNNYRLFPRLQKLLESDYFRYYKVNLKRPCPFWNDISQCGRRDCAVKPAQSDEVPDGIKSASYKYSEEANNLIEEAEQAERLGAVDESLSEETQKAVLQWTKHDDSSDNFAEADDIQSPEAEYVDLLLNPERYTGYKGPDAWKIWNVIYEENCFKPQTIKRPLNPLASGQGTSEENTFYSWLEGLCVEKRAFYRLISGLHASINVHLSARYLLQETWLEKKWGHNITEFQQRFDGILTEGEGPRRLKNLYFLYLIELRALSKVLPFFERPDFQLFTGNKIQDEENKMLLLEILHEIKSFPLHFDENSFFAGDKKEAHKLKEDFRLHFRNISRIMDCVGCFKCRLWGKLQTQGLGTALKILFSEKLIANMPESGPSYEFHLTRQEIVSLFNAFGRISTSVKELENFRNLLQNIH

**Q.** Which results are given for CN(C)c1ccc(/C=C2\Oc3cc(O)ccc3C2=O)cc1 [Compound T151742]?
**A.** sensitivity of ERO1α knockout clones in clonogenic assay [1]: completely resistant; mechanism of inhibition of ERO1α (purified human ERO1α): non-competitive (mixed) inhibitor
